Data published in patent US9815794B2, “Inhibition of bacterial biofilms and microbial growth with imidazole derivatives” (North Carolina State University, priority 2011, dated 2017).
Converted amounts (≈) assume the structure as drawn.

Experiments:
Vibrio cholerae = assay: Marine bacteria microdilution MIC; assay type: cell-based; details: V. cholerae
[1] = system: Rhodospirillum salexigens; assay: Marine bacteria microdilution MIC; details: R. salexigens
V. vulnificus = assay: Dispersion of pre-formed biofilms; assay type: cell-based; details: Vibrio vulnificus, read-out: EC50, 50% dispersion of a pre-formed biofilm
Method: (§1) The ability of 15 and 19 to disperse pre-formed biofilms was also determined for all of the aforementioned bacterial strains (both marine and terrestrial). To quantify this effect, the EC50 value of each compound against each bacterial strain was determined, where EC50 is defined as the concentration of compound that elicits 50% dispersion of a pre-formed biofilm. Both compounds are able to disperse pre-formed biofilms at low micromolar concentrations. These concentrations are also microbicidal to planktonic bacteria.
(§2) Procedure to Determine the Dispersal Effect of Test Compounds on E. faecium (VRE), MRSA, S. aureus, S. epidermidis, E. coli, R. salexigens, V. cholerae, V. vulnificus and L. anguillarum
(§3) Preformed Biofilms: Dispersion assays were performed by taking an overnight culture of bacterial strain and subculturing it at an OD600 of 0.01 into the necessary medium (brain heart infusion for E. faecium, tryptic soy broth with a 0.5% glucose supplement (TSBG) for MRSA, S. aureus and S. epidermidis, Luria-Bertani (LB) medium for MDRAB and E. coli, and tryptic soy broth with a 0.5% glucose supplement and a 3.0% NaCl supplement (TGN) for R. salexigens, V. cholerae, V. vulnificus and L. anguillarum.) The resulting bacterial suspension was aliquoted (100 μL) into the wells of a 96-well PVC microtiter plate. Plates were then wrapped in GLAD Press n' Seal® followed by an incubation under stationary conditions at 37° C. to establish the biofilms. After 24 h, the medium was discarded from the wells and the plates were washed thoroughly with water. Stock solutions of predetermined concentrations of the test compound were then made in the necessary medium. These stock solutions were aliquoted (100 μL) into the wells of the 96-well PVC microtiter plate with the established biofilms. Medium alone was added to a subset of the wells to serve as a control. Sample plates were then incubated for 24 h at 37° C. After incubation, the medium was discarded from the wells and the plates were washed thoroughly with water. Plates were then stained with 100 μL of 0.1% solution of crystal violet (CV) and then incubated at ambient temperature for 30 min. Plates were washed with water again and the remaining stain was solubilized with 200 μL of 95% ethanol. A sample of 125 μL of solubilized CV stain from each well was transferred to the corresponding wells of a polystyrene microtiter dish. Biofilm dispersion was quantitated by measuring the OD540 of each well in which a negative control lane wherein no biofilm was formed served as a background and was subtracted out.

MDRAB = assay: Dispersion of pre-formed biofilms; assay type: cell-based; details: read-out: EC50, 50% dispersion of a pre-formed biofilm
Method: as §1, §2, §3

V. cholerae = assay: Dispersion of pre-formed biofilms; assay type: cell-based; details: Vibrio cholerae, read-out: EC50, 50% dispersion of a pre-formed biofilm
Method: as §1, §2, §3

S. epidermidis [2] = assay: Dispersion of pre-formed biofilms; assay type: cell-based; details: Staphylococcus epidermidis, read-out: EC50, 50% dispersion of a pre-formed biofilm
Method: as §1, §2, §3

E. coli = assay: Dispersion of pre-formed biofilms; assay type: cell-based; details: Escherichia coli, read-out: EC50, 50% dispersion of a pre-formed biofilm
Method: as §1, §2, §3

MRSA [3] = assay: Broth microdilution MIC; assay type: cell-based, methicillin-resistant S. aureus; details: Staphylococcus aureus
Method: (§4) Once it was determined that this specific 4,5-disubstitution pattern imparted microbicidal activity onto the 2-AI framework, this activity was quantified by measuring the MIC of each derivative against a variety of representative pathogenic bacterial strains using the microdilution protocol (CSLI, Performance Standards for Antimicrobial Suceptibility Testing; Nineteenth Informational Supplement, Clinical and Laboratory Standards Institute, Wayne, Pa., 2009). E. coli, MDRAB, P. aeruginosa, MRSA, MSSA, S. epidermidis and VRE were used for initial evaluation. From this screen, compound 15 was determined to be the lead compound and had MIC values (μg/mL) of 2, 2, 1, 0.5, 0.25, and 1 against E. coli, MDRAB, MRSA, VRE, S. Epidermidis and MSSA.
(§5) S. aureus (ATCC #29213), S. epidermidis (ATCC #29886), MRSA (ATCC # BAA-44), MDRAB (ATCC # BAA-1605), vancomycin resistant Enterococcus faecium (VRE) (ATCC #51559) and E. coli (ATCC #35695) were obtained from the ATCC. Mechanically difibrinated sheep blood (DSB100) was obtained from Hemostat Labs. Mueller-Hinton medium was purchased from Fluka (#70192).
(§6) Broth Microdilution Method for MIC Determination.

Listonella anguillarum = assay: Marine bacteria microdilution MIC; details: L. anguillarum
[4] = Dye dispersion assay from synthetic vesicles; details: 5 minutes
Method: Finally, given that active compounds are characterized by a polar head group and a lipophilic tail, it was probed whether compounds 15 and 19 were eliciting their activity via a pore forming mechanism. Compound 1 was used as a control. This was probed via a dye dispersion assay from synthetic vesicles (Liu et al., J. Am. Chem. Soc., 2001, 123, 7553-7559). Two types of vesicles were prepared, one containing 1-palmitoyl-2-oleoyl-sn-glycero-3-phosphocholine (POPC) and the other containing 1-palmitoyl-2-oleoyl-sn-glycero-3-phosphoglycerol (POPG). POPC mimics typical cell membranes encountered for mammalian red blood cells, while POPG mimics the negatively charged lipids encountered in bacterial membranes. In 5 minutes, at 25 μM, compounds 15 and 19 elicited 20% dye leakage from the POPG vesicles while they elicited 10% and 15% dye leakage from the POPC vesicles respectively. However, in 5 minutes at 500 μM, compounds 15 and 19 elicited 78% and 85% dye leakage from the POPG vesicles respectively. In 5 minutes at 25 μM, control compound 1 elicited 9% and 18% leak dye leakage from the POPC and POPG vesicles respectively, while in 5 minutes at 500 μM 1 elicited 15% and 50% leakage from the POPC and POPG vesicles. Given this differential response, and without wishing to be bound by theory, it is likely that compounds 15 and 19 are inducing microbicidal activity through a simple pore-forming mechanism.

MSSA = assay: Broth microdilution MIC; assay type: cell-based, S. aureus; details: Staphylococcus aureus
Method: as §4, §5, §6

S. epidermidis [5] = assay: Broth microdilution MIC; assay type: cell-based; details: Staphylococcus epidermidis, read-out: MIC
Method: as §4, §5, §6

R. salexigens = assay: Dispersion of pre-formed biofilms; assay type: cell-based, Rhodospirillum salexigens; details: Rhodothalassium salexigens, read-out: EC50, 50% dispersion of a pre-formed biofilm
Method: as §1, with “bacteria. […]” for “bacteria.”
(§7) Preformed Biofilms: Dispersion assays were performed by taking an overnight culture of bacterial strain and subculturing it at an OD600 of 0.01 into the necessary medium (brain heart infusion for E. faecium, tryptic soy broth with a 0.5% glucose supplement (TSBG) for MRSA, S. aureus and S. epidermidis, Luria-Bertani (LB) medium for MDRAB and E. coli, and tryptic soy broth with a 0.5% glucose supplement and a 3.0% NaCl supplement (TGN) for R. salexigens, V. cholerae, V. vulnificus and L. anguillarum.) The resulting bacterial suspension was aliquoted (100 μL) into the wells of a 96-well PVC microtiter plate. […] Biofilm dispersion was quantitated by measuring the OD540 of each well in which a negative control lane wherein no biofilm was formed served as a background and was subtracted out.

MRSA [6] = assay: Dispersion of pre-formed biofilms; assay type: cell-based, methicillin-resistant S. aureus; details: Staphylococcus aureus, read-out: EC50, 50% dispersion of a pre-formed biofilm
Method: as §1, with “bacteria. […]” for “bacteria.”
as §7

Row | SMILES | MIC (Vibrio cholerae) | MIC (Vibrio cholerae; Vibrio cholerae) | MIC [1] | MIC ([1]; Rhodothalassium salexigens) | EC50 (V. vulnificus) | EC50 (MDRAB) | EC50 (V. cholerae) | EC50 (S. epidermidis [2]) | EC50 (E. coli) | MIC (MRSA [3]) | MIC (Listonella anguillarum; Vibrio anguillarum) | dye leakage ([4]; POPC vesicles, 25 μM) | dye leakage ([4]; POPG vesicles, 25 μM) | dye leakage ([4]; POPG vesicles, 500 μM) | MIC (MSSA) | MIC (S. epidermidis [5]) | EC50 (R. salexigens) | EC50 (MRSA [6]) | MIC (Listonella anguillarum)
1 | CCCCCCc1[nH]c(N)nc1CCCCCc1ccccc1 [Compound 19, 5-hexyl-4-(5-phenylpentyl)-1H-imidazol-2-amine] | 2.19 µg/mL (≈ 6.99 µM) | 2.2 µg/mL (≈ 7.02 µM) | 1.09 µg/mL (≈ 3.48 µM) | 1.1 µg/mL (≈ 3.51 µM) | 3.2 ± 1.3 µM | 11.1 ± 0.1 µM | 14.7 ± 1.8 µM | 17.7 ± 0.3 µM | 42.5 ± 6.1 µM | 1 µg/mL (≈ 3.19 µM) | 2.2 µg/mL (≈ 7.02 µM) | 15% | 20% | 85% | 1 µg/mL (≈ 3.19 µM) | 0.5 µg/mL (≈ 1.59 µM) | 17.6 ± 3.2 µM | 74.9 ± 9.8 µM | 
2 | CCCCCc1[nH]c(N)nc1CCCCCc1ccccc1 [Compound 15, 5-pentyl-4-(5-phenylpentyl)-1H-imidazol-2-amine] | 4.20 µg/mL (≈ 14 µM) | 4.2 µg/mL (≈ 14 µM) | 2.10 µg/mL (≈ 7.01 µM) | 2.1 µg/mL (≈ 7.01 µM) | 18.1 ± 2.3 µM | 7.1 ± 1.3 µM | 7.12 ± 0.3 µM | 24.7 ± 5.8 µM | 12 ± 1.6 µM | 1 µg/mL (≈ 3.34 µM) | 2.1 µg/mL (≈ 7.01 µM) | 10% | 20% | 78% | 1 µg/mL (≈ 3.34 µM) | 0.25 µg/mL (≈ 0.835 µM) | 6.6 ± 1.1 µM | 33.9 ± 3.9 µM | 2.10 µg/mL (≈ 7.01 µM)
